In the experiment the target is T1, VcCA (α-class carbonic anhydrase from Vibrio cholerae) (Vibrio cholerae, UniProt Q9KMP6).
T1 construct: gene VC_A0274
Kind of experiment: stopped-flow CO2 hydration assay, Cheng-Prusoff. Format: biochemical. As to conditions: read-out: KI * (nM) / VcCA; CO2 substrate, pH 7.4, 10 mM Hepes, 0.1 M NaClO4, 25 °C, 15 min pre-incubation.

The structures appear in SMILES notation.

T1 sequence (Q9KMP6 21-239 limits assumed): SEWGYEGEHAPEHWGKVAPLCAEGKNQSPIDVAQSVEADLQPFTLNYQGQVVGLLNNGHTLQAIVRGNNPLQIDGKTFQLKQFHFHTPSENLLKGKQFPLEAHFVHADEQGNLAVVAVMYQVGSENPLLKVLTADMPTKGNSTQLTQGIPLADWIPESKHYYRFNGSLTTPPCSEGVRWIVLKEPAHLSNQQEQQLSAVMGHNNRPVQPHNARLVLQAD

On to `NS(=O)(=O)c1ccc2[nH]c(C(=O)NN=Cc3cccs3)c(-c3ccccc3)c2c1` [compound 4, 4 (R = H, R1 = thiophen-2-yl)], for which the Ki was 80.4 nM.
Turning to `NS(=O)(=O)c1ccc2[nH]c(C(=O)NN=Cc3ccc(Br)s3)c(-c3ccccc3)c2c1` [compound 5, 5 (R = H, R1 = 5-Br-thiophen-2-yl)], the Ki is 94.8 nM.
Turning to `Cn1cccc1C=NNC(=O)c1[nH]c2ccc(S(N)(=O)=O)cc2c1-c1ccccc1` [compound 6, 6 (R = H, R1 = 1-CH3-pyrrol-2-yl)], the Ki came to 74.1 nM.
In the case of `NS(=O)(=O)c1ccc2[nH]c(C(=O)NN=Cc3cccnc3)c(-c3ccccc3)c2c1` [compound 7, 7 (R = H, R1 = pyridin-3-yl)] it was 74.2 nM.
As to `NS(=O)(=O)c1ccc2[nH]c(C(=O)NN=Cc3ccncc3)c(-c3ccccc3)c2c1` [compound 8, 8 (R = H, R1 = pyridin-4-yl)], the Ki was 72.1 nM.
`NS(=O)(=O)c1ccc2[nH]c(C(=O)NN=Cc3c[nH]c4ccccc34)c(-c3ccccc3)c2c1` [compound 9, 9 (R = H, R1 = indol-3-yl)]: the Ki worked out at 60.5 nM.
Turning to `C=NNC(=O)c1[nH]c2ccc(S(N)(=O)=O)cc2c1-c1ccccc1` [compound 10, 10 (R = H, R1 = H)], the Ki was 46.6 nM.
Take `CC=NNC(=O)c1[nH]c2ccc(S(N)(=O)=O)cc2c1-c1ccccc1` [compound 11, 11 (R = H, R1 = CH3)]: the Ki was found to be 27.1 nM.
The same measure for `CC(C)=NNC(=O)c1[nH]c2ccc(S(N)(=O)=O)cc2c1-c1ccccc1` [compound 12, 12 (R = CH3, R1 = CH3)]: 22.8 nM.
`CC(CC(C)C)=NNC(=O)c1[nH]c2ccc(S(N)(=O)=O)cc2c1-c1ccccc1` [compound 15, 15 (R = CH3, R1 = isobutyl)]: the Ki came to 79.6 nM.
In the case of `NS(=O)(=O)c1ccc2[nH]c(C(=O)NN=C3CCCC3)c(-c3ccccc3)c2c1` [compound 16, 16 (R/R1 = cyclopentyl)] it was 68 nM; in that of `NS(=O)(=O)c1ccc2[nH]c(C(=O)NN=C3CCCCC3)c(-c3ccccc3)c2c1` [compound 17, 17 (R/R1 = cyclohexyl)], 81.4 nM; in that of `CC1CCC(=NNC(=O)c2[nH]c3ccc(S(N)(=O)=O)cc3c2-c2ccccc2)CC1` (stereo not shown) [compound 18, 18 (R/R1 = 4-methylcyclohexyl)], 71.4 nM.
Consider `CCC1CCC(=NNC(=O)c2[nH]c3ccc(S(N)(=O)=O)cc3c2-c2ccccc2)CC1` (stereo not shown) [compound 19, 19 (R/R1 = 4-ethylcyclohexyl)], for which the Ki was found to be 62.1 nM.
In the case of `CCCC1CCC(=NNC(=O)c2[nH]c3ccc(S(N)(=O)=O)cc3c2-c2ccccc2)CC1` (stereo not shown) [compound 20, 20 (R/R1 = 4-propylcyclohexyl)], the Ki turned out to be 67.5 nM.
In the case of `NS(=O)(=O)c1ccc2[nH]c(C(=O)NN=C3CCC(c4ccccc4)CC3)c(-c3ccccc3)c2c1` (stereo not shown) [compound 21, 21 (R/R1 = 4-phenylcyclohexyl)] it was 52.1 nM; in that of `CC(C)(C)C1CCC(=NNC(=O)c2[nH]c3ccc(S(N)(=O)=O)cc3c2-c2ccccc2)CC1` (stereo not shown) [compound 22, 22 (R/R1 = 4-tert-butylcyclohexyl)], 34.1 nM; in that of `CN1CCC(=NNC(=O)c2[nH]c3ccc(S(N)(=O)=O)cc3c2-c2ccccc2)CC1` [compound 23, 23 (R/R1 = 1-methylpiperidin-4-yl)], 25.2 nM.
As for `NS(=O)(=O)c1ccc2[nH]c(C(=O)NN=C3CCN(Cc4ccccc4)CC3)c(-c3ccccc3)c2c1` [compound 24, 24 (R/R1 = 1-benzylpiperidin-4-yl)], the Ki turned out to be 92.4 nM.

The values above are taken from article PMC7247680, “Novel Indole-Based Hydrazones as Potent Inhibitors of the α-class Carbonic Anhydrase from Pathogenic Bacterium Vibrio cholerae” (International Journal of Molecular Sciences, 2020).
